Values of other authors as cited in patent US20240156749A1, “Pre And Post Natal Compositions Including Carotenoids” (Maravilla, LLC, priority 2022, published 2024).

Tested on: oxygen-induced retinopathy
Settings: mouse model of retinopathy of prematurity; prenatal supplementation

SMILES: CC1=C(/C=C/C(C)=C/C=C/C(C)=C/C=C/C=C(C)/C=C/C=C(C)/C=C/C2=C(C)C[C@@H](O)CC2(C)C)C(C)(C)C[C@H](O)C1 [zeaxanthin]
- inhibition of oxygen-induced retinopathy: significantly inhibits oxygen-induced retinopathy

SMILES: CC1=C[C@H](O)CC(C)(C)[C@H]1/C=C/C(C)=C/C=C/C(C)=C/C=C/C=C(C)/C=C/C=C(C)/C=C/C1=C(C)C[C@@H](O)CC1(C)C [lutein]
- inhibition of oxygen-induced retinopathy: significantly inhibits oxygen-induced retinopathy
